Source: article PMC5218480 (PLoS ONE, 2017)

System: MV-4-11 cells
Assay: Gene expression microarray analysis (Affymetrix PrimeView) and GSEA
Type: cell-based, human
Design: RFU PODN (11730768_x_at) / Fold change /veh PODN (11730768_x_at) / RFU LINC00158 (11744669_a_at) / Fold change /veh LINC00158 (11744669_a_at) / RFU DUSP10 (11751237_a_at) / Fold change /veh DUSP10 (11751237_a_at) / RFU ID3 (11757404_x_at) / Fold change /veh ID3 (11757404_x_at) / RFU PLEKHG5 (11737974_s_at) / Fold change /veh PLEKHG5 (11737974_s_at) / RFU LRRC4B (11730491_at) / Fold change /veh LRRC4B (11730491_at) / RFU GIMAP4 (11747438_a_at) / Fold change /veh GIMAP4 (11747438_a_at) / RFU KRT8 (11758183_x_at) / Fold change /veh KRT8 (11758183_x_at) / RFU CNN1 (11734310_a_at) / Fold change /veh CNN1 (11734310_a_at) / RFU VPS37D (11726825_at) / Fold change /veh VPS37D (11726825_at) / RFU C10orf10 (11716522_x_at) / Fold change /veh C10orf10 (11716522_x_at) / RFU KIR2DL2 /// KIR2DL4 /// KIR2DL5A /// KIR2DL5B /// KIR2DS1 /// KIR2DS2 /// KIR2DS3 /// KIR2DS4 /// KIR3DL3 /// KIR3DL3 /// KIR3DS1 (11738374_at) / Fold change /veh KIR2DL2 /// KIR2DL4 /// KIR2DL5A /// KIR2DL5B /// KIR2DS1 /// KIR2DS2 /// KIR2DS3 /// KIR2DS4 /// KIR3DL3 /// KIR3DL3 /// KIR3DS1 (11738374_at) / RFU C1QL1 (11718748_at) / Fold change /veh C1QL1 (11718748_at) / RFU TMPRSS4 (11747572_a_at) / Fold change /veh TMPRSS4 (11747572_a_at) / RFU HAMP (11756126_x_at) / Fold change /veh HAMP (11756126_x_at) / RFU RNFT2 (11725882_a_at) / Fold change /veh RNFT2 (11725882_a_at) / RFU NR4A2 (11747474_a_at) / Fold change /veh NR4A2 (11747474_a_at) / RFU ABCC12 (11746883_a_at) / Fold change /veh ABCC12 (11746883_a_at) / RFU TMEM136 (11760407_x_at) / Fold change /veh TMEM136 (11760407_x_at) / RFU CLDN22 /// WWC2 (11732394_at) / Fold change /veh CLDN22 /// WWC2 (11732394_at) / RFU HLA-DPB1 (11760878_x_at) / Fold change /veh HLA-DPB1 (11760878_x_at) / RFU SPINT1 (11716480_a_at) / Fold change /veh SPINT1 (11716480_a_at) / RFU GAP43 (11754022_s_at) / Fold change /veh GAP43 (11754022_s_at) / RFU A4GNT (11735810_at) / Fold change /veh A4GNT (11735810_at) / RFU PRB3 (11715151_x_at) / Fold change /veh PRB3 (11715151_x_at) / RFU TUBB4B (11761932_at) / Fold change /veh TUBB4B (11761932_at) / RFU CAPN14 (11732068_a_at) / Fold change /veh CAPN14 (11732068_a_at) / RFU TMCC2 (11721928_a_at) / Fold change /veh TMCC2 (11721928_a_at) / RFU IRGQ (11745062_a_at) / Fold change /veh IRGQ (11745062_a_at) / RFU FAM174B (11720279_a_at) / Fold change /veh FAM174B (11720279_a_at) / RFU TMPRSS4 (11748680_a_at) / Fold change /veh TMPRSS4 (11748680_a_at) / RFU FAM212B (11763350_a_at) / Fold change /veh FAM212B (11763350_a_at) / RFU PLEKHG5 (11743358_a_at) / Fold change /veh PLEKHG5 (11743358_a_at) / RFU ZSCAN30 (11745921_a_at) / Fold change /veh ZSCAN30 (11745921_a_at) / RFU CMKLR1 (11741424_a_at) / Fold change /veh CMKLR1 (11741424_a_at) / RFU LOC101060620 /// MAPK8IP1 (11723275_at) / Fold change /veh LOC101060620 /// MAPK8IP1 (11723275_at) / RFU SPTSSB (11747773_x_at) / Fold change /veh SPTSSB (11747773_x_at) / RFU PRSS12 (11739890_at) / Fold change /veh PRSS12 (11739890_at) / RFU BIN1 (11741810_x_at) / Fold change /veh BIN1 (11741810_x_at) / RFU WNT11 (11732464_a_at) / Fold change /veh WNT11 (11732464_a_at) / RFU C10orf10 (11716521_a_at) / Fold change /veh C10orf10 (11716521_a_at) / RFU C5orf56 (11738089_at) / Fold change /veh C5orf56 (11738089_at) / RFU CYB561 (11721691_x_at) / Fold change /veh CYB561 (11721691_x_at) / RFU ANKRD19P (11752326_a_at) / Fold change /veh ANKRD19P (11752326_a_at) / RFU OR2T12 /// OR2T33 /// OR2T8 (11738714_s_at) / Fold change /veh OR2T12 /// OR2T33 /// OR2T8 (11738714_s_at) / RFU VCAN (11748164_a_at) / Fold change /veh VCAN (11748164_a_at) / RFU JSRP1 (11732532_at) / Fold change /veh JSRP1 (11732532_at) / RFU KRTAP10-11 (11738290_x_at) / Fold change /veh KRTAP10-11 (11738290_x_at) / RFU MYO3A (11730013_a_at) / Fold change /veh MYO3A (11730013_a_at) / RFU EBF3 (11725865_a_at) / Fold change /veh EBF3 (11725865_a_at) / RFU CAMK2N1 (11719241_x_at) / Fold change /veh CAMK2N1 (11719241_x_at) / RFU C5orf56 (11738088_a_at) / Fold change /veh C5orf56 (11738088_a_at) / RFU OLFML3 (11715873_a_at) / Fold change /veh OLFML3 (11715873_a_at) / RFU LOC100653217 /// NTM (11731650_a_at) / Fold change /veh LOC100653217 /// NTM (11731650_a_at) / RFU MAPK11 (11762145_a_at) / Fold change /veh MAPK11 (11762145_a_at) / RFU FIZ1 (11724087_x_at) / Fold change /veh FIZ1 (11724087_x_at) / RFU OASL (11726364_x_at) / Fold change /veh OASL (11726364_x_at) / RFU SOX15 (11748057_x_at) / Fold change /veh SOX15 (11748057_x_at) / RFU CD79A (11719716_a_at) / Fold change /veh CD79A (11719716_a_at) / RFU HIST1H1D (11736915_at) / Fold change /veh HIST1H1D (11736915_at) / RFU CASKIN2 (11723855_a_at) / Fold change /veh CASKIN2 (11723855_a_at) / RFU LOC730098 (11760151_x_at) / Fold change /veh LOC730098 (11760151_x_at) / RFU OR4N2 (11742367_at) / Fold change /veh OR4N2 (11742367_at) / RFU PRRT2 (11749266_a_at) / Fold change /veh PRRT2 (11749266_a_at) / RFU SNX32 (11753110_a_at) / Fold change /veh SNX32 (11753110_a_at) / RFU CDHR5 (11726645_a_at) / Fold change /veh CDHR5 (11726645_a_at) / RFU RCAN1 (11760418_a_at) / Fold change /veh RCAN1 (11760418_a_at) / RFU FAM167A (11723789_a_at) / Fold change /veh FAM167A (11723789_a_at) / RFU FAM26E (11764081_at) / Fold change /veh FAM26E (11764081_at) / RFU ISYNA1 (11749810_s_at) / Fold change /veh ISYNA1 (11749810_s_at) / RFU ACY1 (11761880_at) / Fold change /veh ACY1 (11761880_at) / RFU 11764098_at / Fold change /veh 11764098_at / RFU SAMD14 (11745864_x_at) / Fold change /veh SAMD14 (11745864_x_at) / RFU NPB (11741838_a_at) / Fold change /veh NPB (11741838_a_at) / RFU TMPRSS6 (11731388_a_at) / Fold change /veh TMPRSS6 (11731388_a_at) / RFU KRTAP10-2 (11738614_at) / Fold change /veh KRTAP10-2 (11738614_at) / RFU ARHGAP8 /// PRR5-ARHGAP8 (11727945_x_at) / Fold change /veh ARHGAP8 /// PRR5-ARHGAP8 (11727945_x_at) / RFU KRTAP5-7 /// NADSYN1 (11734609_at) / Fold change /veh KRTAP5-7 /// NADSYN1 (11734609_at) / RFU RASL12 (11751679_a_at) / Fold change /veh RASL12 (11751679_a_at) / RFU CDKN2B (11736163_a_at) / Fold change /veh CDKN2B (11736163_a_at) / RFU PRF1 (11729649_at) / Fold change /veh PRF1 (11729649_at) / RFU, ZNF638 /// ZNF638-IT1 / Fold change vs veh, ZNF638 /// ZNF638-IT1 / RFU, PANK3 / Fold change vs veh, PANK3 / RFU, SH3YL1 / Fold change vs veh, SH3YL1 / RFU, ZEB2 / Fold change vs veh, ZEB2 / RFU, NRIP1 / Fold change vs veh, NRIP1 / RFU, PTTG1IP / Fold change vs veh, PTTG1IP / RFU, CAPN2 / Fold change vs veh, CAPN2 / RFU, MED14 / Fold change vs veh, MED14 / RFU, SNORA58 / Fold change vs veh, SNORA58 / RFU, C1orf63 / Fold change vs veh, C1orf63 / RFU, LRRFIP1 / Fold change vs veh, LRRFIP1 / RFU, NDUFAF7 / Fold change vs veh, NDUFAF7 / RFU, SLC12A2 / Fold change vs veh, SLC12A2 / RFU, IBTK / Fold change vs veh, IBTK / RFU, ESF1 / Fold change vs veh, ESF1 / Fold change vs veh, TMEM50B / RFU, TAOK1 / Fold change vs veh, TAOK1 / RFU, ACBD3 / Fold change vs veh, ACBD3 / RFU, TMA16 / Fold change vs veh, TMA16 / RFU, RWDD3 / Fold change vs veh, RWDD3 / RFU, BCAT1 / Fold change vs veh, BCAT1 / RFU, EDEM3 / Fold change vs veh, EDEM3 / RFU, TMEM33 / Fold change vs veh, TMEM33 / RFU, WDR75 / Fold change vs veh, WDR75 / RFU, AHCTF1 / Fold change vs veh, AHCTF1 / RFU, TFRC / Fold change vs veh, TFRC / RFU, ZDHHC17 / Fold change vs veh, ZDHHC17 / RFU, NOM1 / Fold change vs veh, NOM1 / RFU, ARL8B / Fold change vs veh, ARL8B / RFU, ZBTB11 / Fold change vs veh, ZBTB11 / RFU, TAMM41 / Fold change vs veh, TAMM41 / RFU, KIAA1704 /// LOC100996395 / Fold change vs veh, KIAA1704 /// LOC100996395 / RFU, ING1 / Fold change vs veh, ING1 / RFU, TRMT61B / Fold change vs veh, TRMT61B / RFU, FUBP3 / Fold change vs veh, FUBP3 / RFU, TP53 / Fold change vs veh, TP53 / RFU, TNKS2 / Fold change vs veh, TNKS2 / RFU, ZFP14 / Fold change vs veh, ZFP14 / RFU, ACTR2 / Fold change vs veh, ACTR2 / RFU, PPP3R1 / Fold change vs veh, PPP3R1 / RFU, PIK3R1 / Fold change vs veh, PIK3R1 / RFU, HNRNPA1 / Fold change vs veh, HNRNPA1 / RFU, RNF170 / Fold change vs veh, RNF170 / RFU, ZNF28 / Fold change vs veh, ZNF28 / RFU, RNGTT / Fold change vs veh, RNGTT / RFU, OGT / Fold change vs veh, OGT / RFU, BRD1 / Fold change vs veh, BRD1 / RFU, MARS / Fold change vs veh, MARS / RFU, ZNF655 / Fold change vs veh, ZNF655 / RFU, FAHD1 / Fold change vs veh, FAHD1 / RFU, BDP1 / Fold change vs veh, BDP1 / RFU, LRRCC1 / Fold change vs veh, LRRCC1 / RFU, ARID1A / Fold change vs veh, ARID1A / RFU, ZNF146 / Fold change vs veh, ZNF146 / RFU, ZNF330 / Fold change vs veh, ZNF330 / RFU, GPN3 / Fold change vs veh, GPN3 / RFU, C9orf123 / Fold change vs veh, C9orf123 / RFU, N4BP2L2 / Fold change vs veh, N4BP2L2 / RFU, ARFIP1 / Fold change vs veh, ARFIP1 / RFU, FAM179B / Fold change vs veh, FAM179B / RFU, BCL10 / Fold change vs veh, BCL10 / RFU, UHRF1BP1L / Fold change vs veh, UHRF1BP1L / RFU, BET1 / Fold change vs veh, BET1 / RFU, CNOT2 / Fold change vs veh, CNOT2 / RFU, ZNF268 / Fold change vs veh, ZNF268 / Fold change vs veh, ZNF507 / RFU, DGCR2 / Fold change vs veh, DGCR2 / RFU, WDSUB1 / Fold change vs veh, WDSUB1 / Fold change vs veh, HSP90B1 /// MIR3652 / RFU, ADSS / Fold change vs veh, ADSS / RFU, GK / Fold change vs veh, GK / RFU, ZNF148 / Fold change vs veh, ZNF148 / RFU, TAF9 / Fold change vs veh, TAF9 / RFU, SLC1A5 / Fold change vs veh, SLC1A5 / RFU, SLMO2 / Fold change vs veh, SLMO2 / RFU, ABCC4 / Fold change vs veh, ABCC4 / RFU, LOC101060439 /// RAP1B / Fold change vs veh, LOC101060439 /// RAP1B / RFU, RFX7 / Fold change vs veh, RFX7 / RFU, GTPBP10 / Fold change vs veh, GTPBP10 / RFU, CNEP1R1 / Fold change vs veh, CNEP1R1 / RFU, BIVM-ERCC5 /// ERCC5 / Fold change vs veh, BIVM-ERCC5 /// ERCC5 / RFU, ILF3 / Fold change vs veh, ILF3 / RFU 11762660_at / Fold change /veh 11762660_at / RFU VCAN (11757783_s_at) / Fold change /veh VCAN (11757783_s_at) / RFU DDX43 (11728927_at) / Fold change /veh DDX43 (11728927_at) / RFU KRT8 (11758188_x_at) / Fold change /veh KRT8 (11758188_x_at) / RFU NKD1 (11759106_at) / Fold change /veh NKD1 (11759106_at) / RFU SRD5A1 (11742802_a_at) / Fold change /veh SRD5A1 (11742802_a_at) / RFU TPSAB1 /// TPSB2 (11721975_s_at) / Fold change /veh TPSAB1 /// TPSB2 (11721975_s_at) / RFU GSTM3 (11746129_a_at) / Fold change /veh GSTM3 (11746129_a_at) / RFU IL23R (11737362_x_at) / Fold change /veh IL23R (11737362_x_at) / RFU TMEM51 (11727254_a_at) / Fold change /veh TMEM51 (11727254_a_at) / RFU PIWIL2 (11732686_x_at) / Fold change /veh PIWIL2 (11732686_x_at) / RFU ORM1 (11744905_x_at) / Fold change /veh ORM1 (11744905_x_at) / RFU CCDC152 (11743942_at) / Fold change /veh CCDC152 (11743942_at) / RFU ECM1 (11717891_a_at) / Fold change /veh ECM1 (11717891_a_at) / RFU IL23R (11748794_a_at) / Fold change /veh IL23R (11748794_a_at) / RFU TNFAIP8L3 (11732012_x_at) / Fold change /veh TNFAIP8L3 (11732012_x_at) / RFU MBOAT4 (11741988_at) / Fold change /veh MBOAT4 (11741988_at) / RFU 11764193_at / Fold change /veh 11764193_at / RFU TMEM53 (11763286_at) / Fold change /veh TMEM53 (11763286_at) / RFU MAGEB2 (11727129_at) / Fold change /veh MAGEB2 (11727129_at) / RFU TMEM200A (11744735_a_at) / Fold change /veh TMEM200A (11744735_a_at) / RFU CCDC152 (11751479_a_at) / Fold change /veh CCDC152 (11751479_a_at) / RFU FAM211A (11726209_a_at) / Fold change /veh FAM211A (11726209_a_at) / RFU RGS16 (11746705_a_at) / Fold change /veh RGS16 (11746705_a_at) / RFU VCAN (11755009_s_at) / Fold change /veh VCAN (11755009_s_at) / RFU RHOB (11743442_s_at) / Fold change /veh RHOB (11743442_s_at) / RFU RGS16 (11720943_a_at) / Fold change /veh RGS16 (11720943_a_at) / RFU RGS16 (11720944_at) / Fold change /veh RGS16 (11720944_at) / RFU, VPS4B / Fold change vs veh, VPS4B / RFU, CREB1 / Fold change vs veh, CREB1 / RFU, DNAJC13 / Fold change vs veh, DNAJC13 / RFU, GNAQ / Fold change vs veh, GNAQ / RFU, CDK5R1 / Fold change vs veh, CDK5R1 / RFU, ZRANB3 / Fold change vs veh, ZRANB3 / RFU, CUL4A / Fold change vs veh, CUL4A / RFU, CCNY / Fold change vs veh, CCNY / RFU, UFL1 / Fold change vs veh, UFL1 / RFU, COG3 / Fold change vs veh, COG3 / RFU, DIAPH2 / Fold change vs veh, DIAPH2 / RFU, SKA2 / Fold change vs veh, SKA2 / RFU, AFF3 / Fold change vs veh, AFF3 / RFU, LMF1 / Fold change vs veh, LMF1 / RFU, IPO11 / Fold change vs veh, IPO11 / RFU, DFFB / Fold change vs veh, DFFB / RFU, FOXP1 / Fold change vs veh, FOXP1 / RFU, CARD8 / Fold change vs veh, CARD8 / RFU, STRN3 / Fold change vs veh, STRN3 / RFU, ADK / Fold change vs veh, ADK / RFU, RASSF2 / Fold change vs veh, RASSF2 / RFU, WIPF1 / Fold change vs veh, WIPF1 / RFU, LARP1B / Fold change vs veh, LARP1B / RFU, RASA1 / Fold change vs veh, RASA1 / RFU, RB1 / Fold change vs veh, RB1 / RFU, PPFIA1 / Fold change vs veh, PPFIA1 / RFU, MAT2A / Fold change vs veh, MAT2A / RFU, CCT5 / Fold change vs veh, CCT5 / RFU, WDR92 / Fold change vs veh, WDR92 / RFU, CUX1 / Fold change vs veh, CUX1 / RFU, TTC7A / Fold change vs veh, TTC7A / RFU, TMEM135 / Fold change vs veh, TMEM135 / RFU, DEPTOR / Fold change vs veh, DEPTOR / RFU, CPM / Fold change vs veh, CPM / RFU, DNAJB6 / Fold change vs veh, DNAJB6 / RFU, CACNA2D3 / Fold change vs veh, CACNA2D3 / RFU, DTX4 / Fold change vs veh, DTX4 / RFU, TFCP2 / Fold change vs veh, TFCP2 / RFU, GMCL1 /// GMCL1P1 / Fold change vs veh, GMCL1 /// GMCL1P1 / RFU, AEBP2 / Fold change vs veh, AEBP2 / RFU, SNHG1 /// SNORD22 /// SNORD25 /// SNORD26 /// SNORD27 /// SNORD28 /// SNORD29 /// SNORD31 / Fold change vs veh, SNHG1 /// SNORD22 /// SNORD25 /// SNORD26 /// SNORD27 /// SNORD28 /// SNORD29 /// SNORD31 / Fold change (Aza/veh), C12orf56 (ProbeSet 11735607_a_at) / Fold change (ACY-1035/veh), C12orf56 (ProbeSet 11735607_a_at) / Fold change (Aza/veh), FGFR1OP (ProbeSet 11751329_s_at) / Fold change (ACY-1035/veh), FGFR1OP (ProbeSet 11751329_s_at) / Fold change (Aza/veh), VPS36 (ProbeSet 11739960_a_at) / Fold change (ACY-1035/veh), VPS36 (ProbeSet 11739960_a_at) / RFU SYPL1 (11715823_x_at) / Fold change /veh SYPL1 (11715823_x_at) / RFU IGFBP7 (11715501_s_at) / Fold change /veh IGFBP7 (11715501_s_at) / RFU REEP3 (11722064_at) / Fold change /veh REEP3 (11722064_at) / RFU IGLL1 (11728026_x_at) / Fold change /veh IGLL1 (11728026_x_at): dose or concentration left out as unconfirmed
Details: MV-4-11 cells, 48 hours

Structure (SMILES): Nc1ccc(-c2cccs2)cc1NC(=O)c1ccc2c(c1)cc(C1CC1)n2CCN1CCOCC1 [ACY-1035]
- RFU SPTSSB (11747773_x_at): 31.07 RFU
